Test results published in PubChem BioAssay (NCI).
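Each compound was tested at five concentrations against cells in 96-well plates for 48 hours. The concentration for full growth arrest is given as TGI.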

What was measured:
Test in all cases: DTP human tumour cell line panel, 48 h
[1] = tested on: NCI-H226 lung
[2] = tested on: COLO 205 colon
[3] = tested on: RPMI-8226 leukemia
[4] = tested on: MDA-N
[5] = tested on: SNB-75 CNS
[6] = tested on: UACC-62 melanoma
[7] = tested on: LOX IMVI melanoma
[8] = tested on: U251 CNS
[9] = tested on: OVCAR-8 ovarian
[10] = tested on: ACHN renal
[11] = tested on: HL-60(TB) leukemia
[12] = tested on: M14 melanoma
[13] = tested on: A498 renal
[14] = tested on: MOLT-4 leukemia
[15] = tested on: HOP-62 NSCLC
[16] = tested on: MDA-MB-435
[17] = tested on: NCI-H23 lung

Structure (SMILES) | TGI [1] [µM] | TGI [2] [µM] | TGI [3] [µM] | TGI [4] [µM] | TGI [5] [µM] | TGI [6] [µM] | TGI [7] [µM] | TGI [8] [µM] | TGI [9] [µM] | TGI [10] [µM] | TGI [11] [µM] | TGI [12] [µM] | TGI [13] [µM] | TGI [14] [µM] | TGI [15] [µM] | TGI [16] [µM] | TGI [17] [µM]
CN(C)c1ccc(/C=C/C(=O)c2cc(C(C)(C)C)c(O)c(C(C)(C)C)c2)cc1 | > 65.9 | 2.65 | 8.63 | 0.69 | 0.856 | > 100 | > 100 | 5.79 | > 100 | > 100 | > 24.4 | > 51.7 | > 100 | > 100 | > 100 | 1.87 | > 100
N/C(=N\N=C\c1cc2ccccc2s1)c1cnccn1 | > 100 | > 100 | > 100 | > 100 | 79.3 | > 100 | > 100 | > 100 | > 100 | > 100 | > 100 | > 100 | > 100 | – | > 100 | > 100 | > 100
CC(=O)C(N1CCCCC1)C(O)(C(F)(F)F)C(F)(F)F (stereo not given) | > 100 | > 100 | > 100 | > 100 | > 100 | > 100 | > 100 | > 100 | > 100 | > 100 | > 100 | > 100 | > 100 | > 100 | – | > 100 | > 100
CC(=O)O[C@@H]1[C@H](OC2CCCCC2(c2ccccc2)c2ccccc2)O[N+]([O-])=CC12CCCCC2 (stereo not given in full) | 27.8 | 33.7 | > 100 | 36.7 | 29.4 | 32.6 | 46.2 | 30.7 | 59.2 | 31.4 | 5.65 | 33.8 | 29.9 | > 100 | – | 29.2 | 22.2
O=C(N/N=C(/COc1ccccc1)N=Cc1ccncc1)c1ccncc1 | – | > 100 | > 100 | > 100 | > 100 | > 100 | > 100 | > 100 | > 100 | > 100 | > 100 | > 100 | > 100 | > 100 | > 100 | > 100 | > 100
COc1ccccc1-n1cnc2c1NC(C)(C)N=C2C(N)=O | > 100 | > 100 | > 100 | > 100 | > 100 | > 100 | > 100 | > 100 | > 100 | > 100 | > 100 | > 100 | > 100 | – | > 100 | > 100 | > 100
COc1ccc(C=Nc2ccc(-c3nc4ccccc4s3)cc2)cc1OC | 85.4 | 39.6 | > 100 | 99 | 75.7 | 47.2 | 45.5 | > 100 | > 100 | 70.5 | – | > 100 | 46.2 | 84.4 | 39.2 | > 100 | 90.6
O=C1CC(c2ccc(Cl)cc2)C2(C(=O)NC(=S)NC2=O)C(c2ccc(Cl)cc2)C1 (stereo not given) | 66.9 | 30.6 | 51.2 | 34.1 | 30.2 | 34.4 | > 100 | 79.7 | – | > 100 | 57.2 | 44.7 | 31.4 | 89.5 | 54.7 | 39.9 | 39
CCOC(=O)c1c(N2CCCC2)[nH]c(=O)c(C(c2c(O)c(C(=O)OCC)c(N3CCCC3)[nH]c2=O)C(C)C)c1O | > 100 | > 100 | > 100 | > 100 | 96.5 | > 100 | > 100 | > 100 | > 100 | > 100 | – | > 100 | > 100 | > 100 | > 100 | > 100 | > 100
c1ccc(-c2csc3c2-n2cccc2C3N2CCCC2)cc1 (stereo not given) | > 100 | – | > 100 | > 100 | > 100 | – | > 100 | > 100 | > 100 | > 100 | > 100 | – | > 100 | > 100 | > 100 | > 100 | > 100
Cc1ccsc1/C=N/NC1=NCCN1 | > 100 | > 100 | > 100 | > 100 | > 100 | > 100 | > 100 | > 100 | > 100 | > 100 | – | > 100 | > 100 | > 100 | > 100 | > 100 | > 100
NC(Cc1ccc(O)cn1)C(=O)NC(C(=O)O)c1ccccc1 (stereo not given) | > 100 | > 100 | > 100 | > 100 | > 100 | – | > 100 | > 100 | > 100 | > 100 | > 100 | – | > 100 | > 100 | > 100 | > 100 | > 100
